Test results: the supplement of paper PMC13380429

Assays:
Conditions in all cases: 72 h
[1] = test system: HepG2; test: relative viability EC50 (midpoint between 100% and the lowest measured viability); higher = less toxic
[2] = test system: Caco-2; test: as above
[3] = test system: Calu-3; test: as above
[4] = test system: Vero E6; test: as above
[5] = test system: U2OS; test: as above
[6] = test system: HepG2; test: drug sensitivity score (DSS) for viability; higher = more toxic; extreme values may be limits of the assay
[7] = test system: Caco-2; test: as above
[8] = test system: Calu-3; test: as above
[9] = test system: Vero E6; test: as above
[10] = test system: U2OS; test: as above
[11] = test system: HepG2; test: cell viability relative to DMSO; higher = less toxic
[12] = test system: Caco-2; test: as above
[13] = test system: Calu-3; test: as above
[14] = test system: Vero E6; test: as above
[15] = test system: U2OS; test: as above

SMILES | relative viability EC50 [1] | relative viability EC50 [2] | relative viability EC50 [3] | relative viability EC50 [4] | relative viability EC50 [5] | drug sensitivity score [6] | drug sensitivity score [7] | drug sensitivity score [8] | drug sensitivity score [9] | drug sensitivity score [10] | cell viability ([11]; 1 nM) | cell viability ([11]; 10 nM) | cell viability ([11]; 100 nM) | cell viability ([11]; 1000 nM) | cell viability ([11]; 10000 nM) | cell viability ([12]; 1 nM) | cell viability ([12]; 10 nM) | cell viability ([12]; 100 nM) | cell viability ([12]; 1000 nM) | cell viability ([12]; 10000 nM) | cell viability ([13]; 1 nM) | cell viability ([13]; 10 nM) | cell viability ([13]; 100 nM) | cell viability ([13]; 1000 nM) | cell viability ([13]; 10000 nM) | cell viability ([14]; 1 nM) | cell viability ([14]; 10 nM) | cell viability ([14]; 100 nM) | cell viability ([14]; 1000 nM) | cell viability ([14]; 10000 nM) | cell viability ([15]; 1 nM) | cell viability ([15]; 10 nM) | cell viability ([15]; 100 nM) | cell viability ([15]; 1000 nM) | cell viability ([15]; 10000 nM)
COc1cc(O)c2c(c1)C(=O)c1cc(C)cc(O)c1C2=O [rheochrysidin] | > 10 µM | > 10 µM | > 10 µM | > 10 µM | > 10 µM | 0 | 0 | 0 | 0 | 0 | 92.7% | 106% | 108% | 107% | 109% | 100% | 109% | 97.9% | 96.9% | 93.5% | 101% | 104% | 105% | 101% | 96.8% | 98.9% | 102% | 98.5% | 98.8% | 101% | 93.4% | 98.8% | 101% | 100% | 93.5%
C1COC(NC(C2CC2)C2CC2)=N1 [rilmenidine] | > 10 µM | > 10 µM | > 10 µM | > 10 µM | > 10 µM | 0 | 0 | 0 | 0 | 0 | 99.3% | 110% | 97.2% | 100% | 103% | 103% | 100% | 103% | 93.4% | 104% | 98.6% | 82.1% | 109% | 95.8% | 105% | 95.9% | 99.1% | 95.3% | 101% | 97.4% | 104% | 97% | 108% | 98.2% | 104%
CC(C)c1nc(CN(C)C(=O)N[C@H](C(=O)N[C@@H](Cc2ccccc2)C[C@H](O)[C@H](Cc2ccccc2)NC(=O)OCc2cncs2)C(C)C)cs1 [ritonavir] | > 10 µM | > 10 µM | > 10 µM | > 10 µM | > 10 µM | 0 | 0.8 | 0 | 0 | 0 | 98.6% | 104% | 94% | 107% | 110% | 97.8% | 94.3% | 96.3% | 100% | 77.5% | 102% | 87% | 93.7% | 102% | 98.6% | 94.4% | 97.5% | 89.4% | 102% | 108% | 105% | 97.5% | 98% | 94.5% | 95.4%
CC(=O)N[C@@H](CC(=O)O)C(=O)N[C@@H](CCC(=O)O)C(=O)O [spaglumic-acid] | > 10 µM | > 10 µM | > 10 µM | > 10 µM | > 10 µM | 0 | 0 | 0 | 0 | 0 | 101% | 108% | 91.5% | 114% | 95.5% | 105% | 98.1% | 101% | 94.6% | 101% | 89.7% | 93.3% | 100% | 97.2% | 105% | 93.6% | 105% | 101% | 102% | 100% | 101% | 96.2% | 104% | 102% | 102%
Nc1ccc(S(=O)(=O)Nc2ccc(Cl)nn2)cc1 [sulfachlorpyridazine] | > 10 µM | > 10 µM | > 10 µM | > 10 µM | > 10 µM | 0 | 0 | 0 | 0 | 0 | 93% | 105% | 105% | 108% | 107% | 99.6% | 93.4% | 94.8% | 106% | 106% | 109% | 91% | 98.5% | 104% | 109% | 97.8% | 95.3% | 101% | 97.1% | 103% | 98.8% | 93% | 100% | 102% | 103%
CCCCC1(COC(=O)CCC(=O)O)C(=O)N(c2ccccc2)N(c2ccccc2)C1=O [suxibuzone] | > 10 µM | > 10 µM | > 10 µM | > 10 µM | > 10 µM | 0 | 0.2 | 0 | 0 | 0 | 122% | 99.5% | 102% | 103% | 94.6% | 87.1% | 104% | 94% | 91.8% | 84.1% | 104% | 101% | 95.2% | 99.2% | 95.6% | 110% | 103% | 103% | 92.4% | 102% | 96.4% | 101% | 96.5% | 102% | 95.5%
O=C1OC(OC(=O)c2cccnc2Nc2cccc(C(F)(F)F)c2)c2ccccc21 (stereo not given) [talniflumate] | > 10 µM | > 10 µM | > 10 µM | > 10 µM | > 10 µM | 0 | 0 | 0 | 0 | 0 | 96.3% | 89.6% | 104% | 96.7% | 104% | 95.4% | 96.9% | 99.5% | 102% | 104% | 90.9% | 100% | 95% | 99.1% | 101% | 99% | 97.6% | 96.8% | 91% | 95.3% | 97.1% | 101% | 98.9% | 102% | 103%
OB1OCc2cc(F)ccc21 [tavaborole] | > 10 µM | > 10 µM | > 10 µM | > 10 µM | > 10 µM | 0 | 0 | 0 | 0 | 0 | 92.9% | 105% | 103% | 102% | 105% | 95.6% | 87.4% | 91.7% | 88.3% | 97.3% | 101% | 105% | 96.4% | 104% | 105% | 94.6% | 96% | 87.7% | 92% | 112% | 99.2% | 97.3% | 100% | 97.2% | 102%
Fc1ccccc1-c1nc2ccn(Cc3ccc(-c4ccc(C(F)(F)F)cc4C(F)(F)F)nn3)cc-2n1 [tegobuvir] | > 10 µM | > 10 µM | > 10 µM | > 10 µM | > 10 µM | 1.6 | 0 | 0 | 0 | 0 | 103% | 97.3% | 103% | 87.6% | 81.6% | 101% | 97.8% | 95% | 99.2% | 97.1% | 98.2% | 93.9% | 104% | 90.3% | 104% | 103% | 101% | 100% | 96.1% | 98.9% | 101% | 102% | 97.2% | 102% | 100%
CC(C)(CO)c1cc2cc(NC(=O)C3(c4ccc5c(c4)OC(F)(F)O5)CC3)c(F)cc2n1C[C@@H](O)CO [tezacaftor] | > 10 µM | > 10 µM | > 10 µM | > 10 µM | > 10 µM | 0 | 0 | 0 | 0 | 0 | 113% | 102% | 94.1% | 97.2% | 96.3% | 101% | 98.1% | 96.3% | 89.1% | 98.8% | 101% | 96.8% | 104% | 104% | 106% | 90.3% | 98.2% | 92.4% | 94.6% | 93.1% | 99.2% | 96.7% | 101% | 97.7% | 93.2%
Cc1ncc(C[n+]2csc(CCOP(=O)(O)OP(=O)(O)O)c2C)c(N)n1 [thiamine-pyrophosphate] | > 10 µM | > 10 µM | > 10 µM | > 10 µM | > 10 µM | 0 | 0 | 0 | 0 | 0 | 95.7% | 112% | 97.4% | 110% | 134% | 95.4% | 88.1% | 106% | 95.5% | 104% | 98.5% | 98% | 104% | 94% | 103% | 91.8% | 101% | 92.6% | 96.1% | 110% | 95.7% | 95.1% | 104% | 95.9% | 98.2%
CC(C)(C)NC[C@H](O)COc1nsnc1N1CCOCC1 [timolol] | > 10 µM | > 10 µM | > 10 µM | > 10 µM | > 10 µM | 0 | 0 | 0 | 0 | 0 | 94.9% | 90% | 97.1% | 96.5% | 94.5% | 98.1% | 102% | 97% | 96.9% | 113% | 99.8% | 94.5% | 101% | 100% | 98.1% | 94.5% | 96.9% | 106% | 99.3% | 104% | 96.6% | 102% | 94.4% | 95.3% | 96.9%
